Three compounds from the NIST ThermoML archive (doi:10.1021/acs.jced.5b00894) can be followed below.

± gives the expanded uncertainty stated by the source.

In general, mass density refers to mass per unit of volume.

The conditions of one data set: 298.15 K; 88 kPa; Liquid; Vibrating tube method.
Turning to `CCCCn1cc[n+](C)c1.F[B-](F)(F)F` [1-butyl-3-methylimidazolium tetrafluoroborate], the mass density stood at 1202.71 ± 4.2 kg/m3.

As for `CCCCCCn1cc[n+](C)c1.N#C[S-]` [1-hexyl-3-methylimidazolium thiocyanate], the mass density was found to be 1036.21 ± 4.1 kg/m3.

`CCCCCCCCn1cc[n+](C)c1.O=[N+]([O-])[O-]` [1-methyl-3-octylimidazolium nitrate]: the mass density is on record as 1063.86 ± 4.1 kg/m3.

Still in this data set, the particulars now being: 313.15 K; 88 kPa; Liquid; Vibrating tube method.
`CCCCn1cc[n+](C)c1.F[B-](F)(F)F` [1-butyl-3-methylimidazolium tetrafluoroborate]: the mass density is reported as 1192.29 ± 4.2 kg/m3.

Consider `CCCCCCn1cc[n+](C)c1.N#C[S-]` [1-hexyl-3-methylimidazolium thiocyanate], for which the mass density is given as 1027.55 ± 4.1 kg/m3.

For `CCCCCCCCn1cc[n+](C)c1.O=[N+]([O-])[O-]` [1-methyl-3-octylimidazolium nitrate], the mass density is given as 1054.55 ± 4.1 kg/m3.

Staying with this data set, now noted: 333.15 K; 88 kPa; Liquid; Vibrating tube method.
Take `CCCCn1cc[n+](C)c1.F[B-](F)(F)F` [1-butyl-3-methylimidazolium tetrafluoroborate]: the mass density came out at 1178.73 ± 4.2 kg/m3.

Take `CCCCCCn1cc[n+](C)c1.N#C[S-]` [1-hexyl-3-methylimidazolium thiocyanate]: the mass density was 1016.12 ± 4.1 kg/m3.

As for `CCCCCCCCn1cc[n+](C)c1.O=[N+]([O-])[O-]` [1-methyl-3-octylimidazolium nitrate], the mass density was 1042.42 ± 4.1 kg/m3.
